Consider 37 compounds from patent US20230053688A1, “METHODS TO ALTER LATENCY IN EBV+ MALIGNANCIES” (Cornell University, priority 2020, published 2023).

This test deals with LMP1 expression in Kem I cells. The test can be described thus: microbe, parasite or virus in culture. In kind it is cell-based, EBV. Particulars: for Average LMP1 Fold Increase / Replicate 1-LMP1 Fold Increase / Replicate 2-LMP1 Fold Increase: Kem I cells, 2.5 uM, 48 hours; for Average LMP1 Fold Increase: average of replicates 1 and 2; for Replicate 1-LMP1 Fold Increase / Replicate 2-LMP1 Fold Increase: fold change in LMP1 transcript vs vehicle; for fold induction at 2.5 µM / fold induction at 1 µM: human gammaherpesvirus 4, 48 h.

Setting [1] is: read-out: Average LMP1 Fold Increase, Kem I cells, 2.5 uM, 48 hours, average of replicates 1 and 2.
[2] abbreviates: read-out: Replicate 1-LMP1 Fold Increase, Kem I cells, 2.5 uM, 48 hours, fold change in LMP1 transcript vs vehicle.
[3] abbreviates: read-out: Replicate 2-LMP1 Fold Increase, Kem I cells, 2.5 uM, 48 hours, fold change in LMP1 transcript vs vehicle.

Molecules are shown by their SMILES. Counter-ions that a name gives are not always drawn. Like-named read-outs stand apart in the source and are kept apart here.

Take `CN(Cc1cnc2nc(N)nc(N)c2n1)c1ccc(C(=O)N[C@@H](CCC(=O)O)C(=O)O)cc1` [Abitrexate (Methotrexate)]: the “Average LMP1 Fold Increase” value amounted to 3.17, the “Replicate 1-LMP1 Fold Increase” value is 3.70 and the “Replicate 2-LMP1 Fold Increase” value came to 2.64.

In the case of `NC(=O)c1ncn([C@@H]2O[C@H](CO)[C@@H](O)[C@H]2O)c1N` [Acadesine], the fold induction at 2.5 µM under setting [1] was found to be 0.58, the fold induction at 2.5 µM under setting [2] stood at 0.57 and the fold induction at 2.5 µM under setting [3] worked out at 0.59.

`COc1ccc2cccc(CCNC(C)=O)c2c1` [Agomelatine]: the fold induction at 2.5 µM under setting [1] was 0.43, the fold induction at 2.5 µM under setting [2] is 0.34 and the fold induction at 2.5 µM under setting [3] amounted to 0.52.

As to `Oc1ncnc2[nH]ncc12` [Allopurinol], the fold induction at 2.5 µM under setting [1] came to 0.11, the fold induction at 2.5 µM under setting [2] was found to be 0.09 and the fold induction at 2.5 µM under setting [3] stood at 0.13.

As to `CCOC(=O)[C@H]1O[C@@H]1C(=O)N[C@@H](CC(C)C)C(=O)NCCC(C)C` [Aloxistatin], the fold induction at 2.5 µM is 0.11 under setting [1], 0.1 under setting [2] and 0.12 under setting [3].

Regarding `CCOC(=O)C1=C(COCCN)NC(C)=C(C(=O)OC)C1c1ccccc1Cl` (stereo not drawn) [Amlodipine], the fold induction at 2.5 µM came out at 2.06 under setting [1], 0.51 under setting [2] and 3.61 under setting [3].

For the compound `COc1cc(F)c(C(C)C)cc1-c1ccc(C(F)(F)F)cc1CN1C(=O)O[C@H](c2cc(C(F)(F)F)cc(C(F)(F)F)c2)[C@@H]1C` [Anacetrapib (MK-0859)], the “Average LMP1 Fold Increase” value is reported as 0.63, the “Replicate 1-LMP1 Fold Increase” value is recorded as 0.80 and the “Replicate 2-LMP1 Fold Increase” value came to 0.46.

As for `CC(C)(C#N)c1cc(Cn2cncn2)cc(C(C)(C)C#N)c1` [Anastrozole], the fold induction at 2.5 µM under setting [1] came to 0.94, the fold induction at 2.5 µM under setting [2] came out at 0.45 and the fold induction at 2.5 µM under setting [3] amounted to 1.42.

Turning to `COc1ccc(C(=O)N2CCCC2=O)cc1` [Aniracetam], the fold induction at 2.5 µM under setting [1] worked out at 0.55, the fold induction at 2.5 µM under setting [2] came out at 0.72 and the fold induction at 2.5 µM under setting [3] amounted to 0.39.

`N#CC1(c2ccc(NC(=O)c3cccnc3NCc3ccncc3)cc2)CCCC1` [Apatinib]: the fold induction at 2.5 µM runs as follows: under setting [1], 0.87; under setting [2], 1.23; under setting [3], 0.5.

Turning to `O=c1cc(-c2ccc(O)cc2)oc2cc(O)cc(O)c12` [Apigenin], the fold induction at 2.5 µM reads like this: under setting [1], 0.58; under setting [2], 0.69; under setting [3], 0.47.

Consider `COc1ccc(-n2nc(C(N)=O)c3c2C(=O)N(c2ccc(N4CCCCC4=O)cc2)CC3)cc1` [Apixaban], for which the fold induction at 2.5 µM was 0.32 under setting [1], 0.4 under setting [2] and 0.24 under setting [3].

Turning to `O=C1C(=O)N(Cc2ccc(Cl)c(Cl)c2)c2ccccc21` [Apoptosis Activator 2], the “Average LMP1 Fold Increase” value came out at 0.82, the “Replicate 1-LMP1 Fold Increase” value worked out at 0.87 and the “Replicate 2-LMP1 Fold Increase” value was found to be 0.78.

In the case of `C[C@@H](O[C@H]1OCCN(Cc2n[nH]c(=O)[nH]2)[C@H]1c1ccc(F)cc1)c1cc(C(F)(F)F)cc(C(F)(F)F)c1` [Aprepitant], the fold induction at 2.5 µM under setting [1] was determined as 0.99, the fold induction at 2.5 µM under setting [2] worked out at 1.58 and the fold induction at 2.5 µM under setting [3] stood at 0.41.

Consider `O=C(O)c1cccc(-c2noc(-c3ccccc3F)n2)c1` [Ataluren (PTC124)], for which the “Average LMP1 Fold Increase” value stood at 0.49, the “Replicate 1-LMP1 Fold Increase” value was 0.50 and the “Replicate 2-LMP1 Fold Increase” value was found to be 0.48.

For `CN(C)C(=O)Nc1cccc(-c2ccc(N(C)C)cc2)c1` [Atglistatin], the “Average LMP1 Fold Increase” value came to 0.99, the “Replicate 1-LMP1 Fold Increase” value came out at 0.75 and the “Replicate 2-LMP1 Fold Increase” value is recorded as 1.23.

For the compound `CC(C)c1c(C(=O)Nc2ccccc2)c(-c2ccccc2)c(-c2ccc(F)cc2)n1CC[C@@H](O)C[C@@H](O)CC(=O)[O-].CC(C)c1c(C(=O)Nc2ccccc2)c(-c2ccccc2)c(-c2ccc(F)cc2)n1CC[C@@H](O)C[C@@H](O)CC(=O)[O-].[Ca+2]` [Atorvastatin Calcium], the “Average LMP1 Fold Increase” value is 0.09, the “Replicate 1-LMP1 Fold Increase” value is recorded as 0.05 and the “Replicate 2-LMP1 Fold Increase” value came out at 0.14.

For the compound `Cn1c(=O)n(-c2ccc(C(C)(C)C#N)cc2)c2c3cc(-c4cnc5ccccc5c4)ccc3ncc21` [BEZ 235], the fold induction at 1 µM (read-out: Average LMP1 Fold Increase, Kem I cells, 1 uM, 48 hours, average of replicates 1 and 2) was 13.3; the fold induction at 1 µM (read-out: Replicate 1-LMP1 Fold Increase, Kem I cells, 1 uM, 48 hours, fold change in LMP1 transcript vs vehicle) was determined as 17.4; the fold induction at 1 µM (read-out: Replicate 2-LMP1 Fold Increase, Kem I cells, 1 uM, 48 hours, fold change in LMP1 transcript vs vehicle) is 9.2.

With `CCN1CCN(c2ccc(Nc3cc(N(C)C(=O)Nc4c(Cl)c(OC)cc(OC)c4Cl)ncn3)cc2)CC1` [BGJ398 (NVP-BGJ398)], the “Average LMP1 Fold Increase” value came to 0.85, the “Replicate 1-LMP1 Fold Increase” value worked out at 1.02 and the “Replicate 2-LMP1 Fold Increase” value is 0.69.

Regarding `CC[C@@H]1C(=O)N(C)c2cnc(Nc3ccc(C(=O)NC4CCN(C)CC4)cc3OC)nc2N1C1CCCC1` [BI 2536], the fold induction at 2.5 µM under setting [1] turned out to be 12.6, the fold induction at 2.5 µM under setting [2] turned out to be 23.3 and the fold induction at 2.5 µM under setting [3] worked out at 1.89.

Consider `CC(C)CCN1c2nc(Nc3cc(F)c(O)c(F)c3)ncc2N(C)C(=O)C1C` (stereo not drawn) [BI-D1870], for which the “Average LMP1 Fold Increase” value came to 0.50, the “Replicate 1-LMP1 Fold Increase” value came to 0.47 and the “Replicate 2-LMP1 Fold Increase” value was determined as 0.52.

As for `C/C(=C\C(=O)Nc1ccccc1C(=O)O)c1ccc2ccccc2c1` [BIBR 1532], the “Average LMP1 Fold Increase” value is given as 0.77, the “Replicate 1-LMP1 Fold Increase” value is given as 0.63 and the “Replicate 2-LMP1 Fold Increase” value is reported as 0.91.

On to `COc1ccc2c(c1)c(CC(=O)N1CCOCC1)c(C)n2C(=O)c1ccc(Cl)cc1` [BML-190], for which the “Average LMP1 Fold Increase” value is recorded as 0.77, the “Replicate 1-LMP1 Fold Increase” value came to 1.01 and the “Replicate 2-LMP1 Fold Increase” value turned out to be 0.53.

On to `COc1ccnc2[nH]cc(C(=O)C(=O)N3CCN(C(=O)c4ccccc4)C[C@H]3C)c12` [BMS-378806], for which the “Average LMP1 Fold Increase” value is recorded as 0.64, the “Replicate 1-LMP1 Fold Increase” value is 0.75 and the “Replicate 2-LMP1 Fold Increase” value worked out at 0.53.

As to `Cn1c(N2CCCCS2(=O)=O)nc(C(=O)NCc2ccc(F)cc2)c(O)c1=O` [BMS-707035], the fold induction at 2.5 µM by setting is: under setting [1], 43.1; under setting [2], 18.2; under setting [3], 68.

Turning to `O=C(Oc1cc(S(=O)(=O)c2ccccc2)ccc1[N+](=O)[O-])c1ccc(Cl)cc1` [BTB06584], the “Average LMP1 Fold Increase” value was found to be 1.22, the “Replicate 1-LMP1 Fold Increase” value stood at 1.23 and the “Replicate 2-LMP1 Fold Increase” value was 1.20.

For the compound `O=C(Nc1cccc(Nc2ncc(Br)c(NCCc3cnc[nH]3)n2)c1)N1CCCC1` [BX-912], the “Average LMP1 Fold Increase” value stood at 0.37, the “Replicate 1-LMP1 Fold Increase” value came out at 0.40 and the “Replicate 2-LMP1 Fold Increase” value came to 0.35.

Regarding `CNC(=O)[C@H](Cc1ccccc1)NC(=O)[C@H](CC(C)C)[C@H](CSc1cccs1)C(=O)NO` [Batimastat (BB-94)], the “Average LMP1 Fold Increase” value is given as 0.46, the “Replicate 1-LMP1 Fold Increase” value is recorded as 0.38 and the “Replicate 2-LMP1 Fold Increase” value amounted to 0.55.

Turning to `Cc1c(-c2ccc(O)cc2)n(Cc2ccc(OCCN3CCCCCC3)cc2)c2ccc(O)cc12` [Bazedoxifene HCl], the fold induction at 2.5 µM runs as follows: under setting [1], 0.54; under setting [2], 0.52; under setting [3], 0.56.

Turning to `O=C(/C=C/c1cccc(S(=O)(=O)Nc2ccccc2)c1)NO` [Belinostat (PXD101)], the “Average LMP1 Fold Increase” value came to 51.63, the “Replicate 1-LMP1 Fold Increase” value came out at 17.40 and the “Replicate 2-LMP1 Fold Increase” value was determined as 85.87.

For `COc1c(O)cc2c(c1O)[C@@H]1O[C@H](CO)[C@@H](O)[C@H](O)[C@H]1OC2=O` [Bergenin], the fold induction at 2.5 µM under setting [1] came out at 0.86, the fold induction at 2.5 µM under setting [2] worked out at 0.65 and the fold induction at 2.5 µM under setting [3] was determined as 1.07.

In the case of `CC[C@H](NC(=O)[C@H](C)NC)C(=O)N1C[C@@H](O)C[C@H]1Cc1c(-c2[nH]c3cc(F)ccc3c2C[C@@H]2C[C@H](O)CN2C(=O)[C@H](CC)NC(=O)[C@H](C)NC)[nH]c2cc(F)ccc12` [Birinapant], the fold induction at 2.5 µM reads like this: under setting [1], 1.03; under setting [2], 1.05; under setting [3], 1.02.

Turning to `CC(C)NCC(O)COc1ccc(COCCOC(C)C)cc1` (stereo not drawn) [Bisoprolol fumarate], the fold induction at 2.5 µM amounted to 1.07 under setting [1], 0.41 under setting [2] and 1.73 under setting [3].

As to `CC(C)C[C@H](NC(=O)[C@H](Cc1ccccc1)NC(=O)c1cnccn1)B(O)O` [Bortezomib (PS-341)], the “Average LMP1 Fold Increase” value came to 77.22, the “Replicate 1-LMP1 Fold Increase” value is listed as 150.06 and the “Replicate 2-LMP1 Fold Increase” value came out at 4.38.

Take `COc1ccccc1Oc1c(NS(=O)(=O)c2ccc(C(C)(C)C)cc2)nc(-c2ncccn2)nc1OCCO` [Bosentan Hydrate]: the fold induction at 2.5 µM under setting [1] was determined as 0.81, the fold induction at 2.5 µM under setting [2] is 1.22 and the fold induction at 2.5 µM under setting [3] came out at 0.4.

As to `COc1cc(Nc2c(C#N)cnc3cc(OCCCN4CCN(C)CC4)c(OC)cc23)c(Cl)cc1Cl` [Bosutinib (SKI-606)], the “Average LMP1 Fold Increase” value turned out to be 0.81, the “Replicate 1-LMP1 Fold Increase” value is recorded as 0.36 and the “Replicate 2-LMP1 Fold Increase” value is 1.26.

Consider `CCN[C@H]1CN(CCCOC)S(=O)(=O)c2sc(S(N)(=O)=O)cc21` [Brinzolamide], for which the fold induction at 2.5 µM was found to be 0.21 under setting [1], 0.23 under setting [2] and 0.2 under setting [3].
